The text below walks through data of patent US20050192279A1, “Pyridazinones as antagonists of alpha4 integrins” (priority 2004, published 2005).

The test system of experiment [1] is circulating leukocytes. Nature of the experiment: In Vivo Model for Leukocytosis. On the set-up: species or system Balb/c mice. The note with it: bled 1-1.5 h after administration. An excerpt: In Vivo Model for Leukocytosis
Leukocytosis is the increase in circulating white blood cells (leukocytes). This can be brought about by preventing leukocyte binding to counter-receptor adhesion molecules expressed on high endothelial venules. This cell adhesion occurs between immunoglobulin superfamily molecules and integrins. Relevant examples of these paired interactions include […] Adhesion Molecule-1 and AlphaL Beta2 integrin, Vascular Cell Adhesion Molecule-1 and α4β1 integrin, and Mucosal Addressin Cell Adhesion Molecule-1 and α4β7 integrin, respectively.
In this model, a compound that antagonizes these leukocyte-endothelial interactions will cause an increase in circulating leukocytes, defined as leukocytosis, as measured at 1-1.5 h post-administration. This leukocytosis is indicative that normal lymphocyte or leukocyte emigration from the peripheral circulation was prevented. Similar emigration of cells out of the circulation into inflamed tissues is responsible for the progression and maintainance of the inflammatory state. Leukocytosis is an indication that lymphocyte and leukocyte extravasation is prevented, and is predictive of general anti-inflammatory activity.
One week prior to being tested, 7-10 week old female Balb/c mice, n=8 per group, were bled and randomized according to leukocyte counts. One week later, the mice were adminstered test compound orally or subcutaneously and then bled 1-1.5 h after drug administration, approximately 1 h after the peak blood concentration of the compound occurred. Whole blood, 250-350 microliters, was collected from each mouse into potassium-EDTA serum collection tubes (Becton-Dickenson) and mixed to prevent clotting.
Cell counts and differential counts on the whole blood preparation were performed using an Advia 120 Hematology System (Bayer Diagnostics). Cell counts as total leukocytes and as total lympohcytes were made and compared to counts made from mice dosed with vehicle only. Data were reported as percent of vehicle control for lymphocyte counts and total leukocyte counts.
Statistical analyses were performed using ANOVA with Dunnet's multiple comparison test.

Experiment [2] relates to DSS induced colitis. Kind of experiment: Dextran Sulfate Sodium (DSS) Induced Colitis. In kind it is in vivo, Balb/c female mice and C57Black/6 mice. An excerpt: In Vivo Model for Colitis: Dextran Sulfate Sodium (DSS) Induced Colitis Inflammatory bowel diseases such as ulcerative colitis and Crohn's disease are characterized by diminished intestinal barrier function, apparent inflammatory damage that may include erosive loss of intestinal mucosa, and inflammatory infiltrates in the mucosa and submucosa. […] Among the many possible chemicals used are dextran sulfate sodium (DSS) and trinitrobenzene sulfonic acid (TNBS). The dextran sulfate sodium model of experimental colitis is characterized by a shrinkage of the colon's length, macrosopic inflammatory damage, diarrhea, a discontinuous pattern of mucosal epithelial damage in the distal colon with infiltration of inflammatory cells that include macrophages and neutrophils into the mucosa and submucosa (Blumberg, R. S., Saubermann, L. J., and Strober, W. Animal models of mucosal inflammation and their relation to human inflammatory bowel disease. Current Opinion in Immunology, 11: 648-656, 1999; […]., and Nakaya, R. A novel method of induction of reliable experimental acute and chronic colitis in mice. […] Cooper, […]., and […]. Clinicopathologic study of dextran sulfate sodium experimental murine colitis. Lab Invest., 69: 238-249, 1993; […]., Bajaj-Elliott, M., MacDonald, […]., and Buchler, M. W. Characterization of acute murine dextran sodium sulphate colitis: Cytokine profile and dose dependency. Digestion, 62: 240-248, 2000; […]., Husband, A. J., and Doe, W. F. The inflammatory infiltrate in the acute stage of the dextran sulphate sodium induced colitis: B cell response differs depending on the percentage of DSS used to induce it. BMC Clinical Pathology, 1: 3-13, 2001; and Diaz-Granados, Howe, K., Lu, J, and […]. Dextran sulfate sodium-induced colonic histopathology, but not altered epithelial ion transport, is reduced by inhibition of phosphodiesterase activity. Amer. J. Pathology, 156: 2169-2177, 2000). Balb/c female mice and […]/6 mice were used in these studies. […] When […]/6 mice were used, a solution of tap water containing 4% DSS was used. During the ensuing 7-day period, test animals were administered a preparation of an experimental compound. This material may be administered orally or intraperitoneally or subcutaneously, once or twice daily. At the end of this period, the animals were euthanized and their colons were collected for further analysis. Among the parameters analyzed were the length of the colon starting from the anus to the top of the cecum, the consistency of any stools found within the colon, and the gross macroscopic appearance of the colon. The distal colon between the 1st and the 4th centimeter was removed and placed in 10% neutral buffered formalin for later histological analysis. For the following parameters, colon length, stool consistency and appearance, and macroscopic damage a scoring system is used to describe the changes. […] Thus, […] Histological analyses of tissues consisted of staining paraffin-embedded tissue sections with hematoxylin-eosin dye. Epithelial damage scores were determined as the fraction of the tissue section showing damaged epithelium. […] Statistical analysis performed in Graphpad Prism 4.0 using ANOVA with Dunnet's or Bonferroni's multiple comparison's test.

[3] abbreviates: 10 mg/kg sc bid, C57 Black/6 mice.
Setting [4] is: 30 mg/kg sc bid, C57 Black/6 mice.

Turning to `COc1cnn(C)c(=O)c1-c1ccc(C[C@H](NC(=O)c2c(Cl)cccc2Cl)C(=O)O)cc1` [Cpd 17], the “Lymphoycte Counts % of Vehicle Control” value in experiment [1] (3 mg/kg sc) is on record as 145.3%; in experiment [1] (10 mg/kg sc), 191.7%; in experiment [1] (30 mg/kg sc), 220.2%. The “Total Leukocyte Count % of Vehicle Control” value in experiment [1] (3 mg/kg sc) was 143.3%; in experiment [1] (10 mg/kg sc), 198.7%; in experiment [1] (30 mg/kg sc) it was 264.5%. In addition, the “% Inhibition of Epithelial Damage Score” value worked out at 61.11% in experiment [2] (3 mg/kg sc bid, balb/c mice); 33.3% in experiment [2] (setting [3]); 56.3% in experiment [2] (10 mg/kg sc bid, balb/c mice); 50% in experiment [2] (setting [4]); 78.1% in experiment [2] (30 mg/kg sc bid, balb/c mice). Besides, the “% Inhibition of Total Macroscopic Score” value in experiment [2] (3 mg/kg sc bid, balb/c mice) is recorded as 32.95%; in experiment [2] (setting [3]), −7.2%; in experiment [2] (10 mg/kg sc bid, balb/c mice), 30.6%; in experiment [2] (setting [4]), 11.2%; in experiment [2] (30 mg/kg sc bid, balb/c mice), −32.8%.

As to `COc1cnn(CCO)c(=O)c1-c1ccc(C[C@H](NC(=O)OC(C)(C)C)C(=O)O)cc1` [Cpd 120], the results for the “Lymphoycte Counts % of Vehicle Control” value in experiment [1] (3 mg/kg sc), in experiment [1] (10 mg/kg sc) and in experiment [1] (30 mg/kg sc) were 104.3%, 112.8% and 80.0%, respectively. Also, the “Total Leukocyte Count % of Vehicle Control” value in experiment [1] (3 mg/kg sc) is 91.8%; in experiment [1] (10 mg/kg sc) it was 101.7%; in experiment [1] (30 mg/kg sc) it was 78.0%.
